In PMC7026882, “Macrofilaricidal Benzimidazole–Benzoxaborole Hybrids as an Approach to the Treatment of River Blindness: Part 2. Ketone Linked Analogs” (ACS Infectious Diseases, 2019):
Like-named read-outs stand apart in the source and are kept apart here.

Columns and labels:
O. volvulus = O. volvulus molting assay; type: cell-based; conditions: Onchocerca volvulus; molting assay
Text: As summarized in Table 1, we were encouraged to find that the initial ketone analogs prepared, namely, 15 (6-linked) and 20 (5-linked), were quite active in an O. volvulus molting assay we used as a primary indicator of antiparasitic activity[30],[31] and were only weakly active in a G2/M arrest,[32] indicative of the interaction with mammalian tubulin. As described above, our hypothesis was to reduce Pgp efflux liability through elimination of the hydrogen-bond donor associated with the N–H of the amide linker, as this has been shown in the literature to be a contributor to recognition by Pgp.[33],[34] […] We were disappointed to find that the 5-linked analog 22 was poorly selective and the 6-linked analog 23 was only weakly active. […]
(§1) in comparison to the number of control larvae that had successfully molted. IC50 values were calculated using GraphPad Prism v6.0 (http://www.graphpad.com). See Bullman et al., PLoS
(§2) Negl. Trop. Dis., 2015, 9, e3534 for further details.
(§3) Adult Brugia malayi in vivo model procedure.
(§4) Gerbils (Meriones unguiculatus) were infected by transplantation of 10 male and 10 female adult Brugia malayi into the peritoneal cavity. Gerbils were acclimated for 7 days prior to treatment. Animals were dosed based on their body weight prior to each dosing. Animals were administered their doses at the same time each day and receive standard rodent laboratory diet and water ad libitum. Gerbils were humanely euthanized at the conclusion of each study.
(§5) Peritoneal counts of male and female adult B. malayi and visual condition of the peritoneum […]
(§6) L3 Brugia pahangi in vivo model procedure.
(§7) Male gerbils (Meriones unguiculatus) approximately 6 weeks of age (50-60 g) were purchased from Charles Rivers (USA, Kingston K62 Gerbils) and infected by intraperitoneal injection with 200 Brugia pahangi third-stage larvae (L3) per animal (Filariatech, Inc., Athens, GA). Gerbils were housed with no more than 5 animals per cage and maintained 9 months prior to treatment. All gerbils were dosed in accordance with their body weight determined prior to each dosing. Animals were administered their doses at the same time each day and are allowed to feed and drink ad libitum. Gerbils were euthanized following approved institutional protocols. Euthanized animals were weighed and examined for external and visceral pathologies. The adult Brugia worms were recovered by opening the body cavity and washing the peritoneal cavity with 100 mL of phosphate buffered saline. Male and female worms were counted using a dissecting microscope.
(§8) Litomosoides sigmodontis in vivo model procedure. 2
(§9) All animal experiments with L. sigmodontis were conducted at the Institute for Medical Microbiology, Immunology and Parasitology (IMMIP), University Hospital of Bonn, in accordance to the European Union animal welfare guidelines. All protocols were approved by the local authorities (Landesamt für Natur, Umwelt und Verbraucherschutz, Cologne, Germany (AZ 84- […]
(§10) Janvier (Saint-Berthevin, France) and were housed at the animal facility of the IMMIP in individually ventilated cages on a 12h light/dark cycle with food and water ad libidum. Mice were infected at 6-8 weeks of age via exposure to the natural mite vector Ornithonyssus bacoti

[1] = test system: mammalian tubulin (G2/M arrest); assay: G2/M arrest assay, indicative of interaction with mammalian tubulin; type: cell-based
Text: (§11) As summarized in Table 1, we were encouraged to find that the initial ketone analogs prepared, namely, 15 (6-linked) and 20 (5-linked), were quite active in an O. volvulus molting assay we used as a primary indicator of antiparasitic activity[30],[31] and were only weakly active in a G2/M arrest,[32] indicative of the interaction with mammalian tubulin. As described above, our hypothesis was to reduce Pgp efflux liability through elimination of the hydrogen-bond donor associated with the N–H of the amide linker, as this has been shown in the literature to be a contributor to recognition by Pgp.[33],[34] […] We were disappointed to find that the 5-linked analog 22 was poorly selective and the 6-linked analog 23 was only weakly active.

[2] = Metabolic stability (Clint) in human microsomes; type: in vitro ADME
Text: as §11

[3] = MDCK-MDR1 cell monolayer permeability assay; type: in vitro ADME; conditions: dog
Text: as §11

MDCK-MDR1 cell monolayer = MDCK-MDR1 cell monolayer permeability assay; type: in vitro ADME
Text: as §11

[4] = Pharmacokinetics in Mongolian gerbils; type: in vivo
Text: (§12) In addition, the concentrations achieved at these doses were well in excess of the O. volvulus IC50, a requirement for in vivo activity that we had hypothesized on the basis of earlier work in the amide-linked series.

Brugia pahangi = assay: In vivo efficacy in the L3 Brugia pahangi gerbil model; conditions: for Number of Worms Recovered, Avg Female Worms / Number of Worms Recovered, Avg Male Worms: PO, 100 mg/kg, recovery day 63
Procedure: For our in vivo model, gerbils were infected by injecting B. pahangi third-stage larvae (L3) that were subsequently allowed to develop to adult worms over several months. Once stable infections had been established, 21 was administered as a suspension via once-daily oral gavage at a dose of 100 mg/kg for 7, 14, or 28 days. All animals were maintained until day 63 after the start of dosing, at which time adult worms were recovered from the peritoneal cavity and microfilariae were quantified in blood samples. Flubendazole (5 mg/kg, SC × 5 days) was included as a positive control in this study. […]
as §1, §2, §3, §4, §5, §6, §7, §8, §9, §10

[5] = Tolerability of once daily dosing to gerbils over 7 days; type: in vivo
Text: as §12

[6] = Metabolite ID studies, in vitro and in vivo; type: in vitro ADME; conditions: in vitro or in vivo experiments
Text: However, the metabolism of flubendazole by the reduction of the ketone leads to short-lived clastogenic metabolites at low levels that may pose a minimal risk.[28]

COC(=O)Nc1nc2ccc(C(=O)c3cccc4c3B(O)OC4)cc2[nH]1 [compound 21]
IC50 (O. volvulus): 100 nM | IC50 [1]: > 38000 nM | microsomal CLint [2]: 5.9 µL/min/mg | Papp [3]: 56.6 ×10⁻⁶ cm/s | MDCK-MDR1 Papp (A-B) (MDCK-MDR1 cell monolayer): 56.6 ×10⁻⁶ cm/s | CLint scaled ([4]; Mongolian gerbil, blood, 2 mg/kg, Table 3, IV, dose 2): 4.82 mL/min/kg | AUC0-last ([4]; Table 3, IV, dose 2): 5950 ng·h/mL | Cmax ([4]; Table 3, IV, dose 2): 1560 ng/mL | AUC0-last ([4]; Table 3, PO, dose 10): 61700 ng·h/mL | Cmax ([4]; Table 3, PO, dose 10): 5750 ng/mL | AUC(0-t) ([4]; blood, 2 mg/kg, Mongolian gerbils, dose 2, IV, read-out: AUC0–24): 5950 ng·h/mL | Cmax ([4]; blood, 2 mg/kg, Mongolian gerbils, dose 2, IV, read-out: Cmax): 1560 ng/mL | Vd ([4]; blood, 2 mg/kg, Table 3, IV, dose 2, read-out: Vdss): 3.19 L/kg | AUC(0-t) ([4]; blood, 10 mg/kg, Mongolian gerbils, dose 10, PO, read-out: AUC0–24): 61700 ng·h/mL | Cmax ([4]; blood, 10 mg/kg, Mongolian gerbils, dose 10, PO, read-out: Cmax): 5750 ng/mL | AUC(0-t) ([4]; blood, 10 mg/kg, Table 3, SC, dose 10, read-out: AUC0-last): 35700 ng·h/mL | Cmax ([4]; blood, 10 mg/kg, Table 3, SC, dose 10, read-out: Cmax): 3130 ng/mL | AUC(0-t) ([4]; blood, 30 mg/kg, Table 3, PO, dose 30, read-out: AUC0-last): 196000 ng·h/mL | Cmax ([4]; blood, 30 mg/kg, Table 3, PO, dose 30, read-out: Cmax): 17200 ng/mL | AUC(0-t) ([4]; blood, 60 mg/kg, Table 3, PO, dose 60, read-out: AUC0-last): 361000 ng·h/mL | Cmax ([4]; blood, 60 mg/kg, Table 3, PO, dose 60, read-out: Cmax): 26300 ng/mL | AUC(0-t) ([4]; blood, 100 mg/kg, Table 3, PO, dose 100, read-out: AUC0-last): 479000 ng·h/mL | Cmax ([4]; blood, 100 mg/kg, Table 3, PO, dose 100, read-out: Cmax): 34500 ng/mL | bioavailability ([4]; blood, po, 10 mg/kg, Mongolian gerbils, dose 10, PO, read-out: bioavailability (%F)): ~100% | bioavailability ([4]; blood, po, 10 mg/kg, Table 3, PO, dose 10, read-out: %F): 100% | bioavailability ([4]; blood, sc, 10 mg/kg, Table 3, SC, dose 10, read-out: %F): 100% | accumulation of the compound ([4]; once daily dosing to gerbils over 7 days): no accumulation | dose proportionality of exposure ([4]; oral dosing to gerbils, up to 100 mg/kg): dose proportional | effective in killing female worms (Brugia pahangi; 100 mg/kg PO once daily for 14 days): 99% | effective in killing female worms (Brugia pahangi; 100 mg/kg PO once daily for 28 days): 99% | effect on worms (Brugia pahangi; 100 mg/kg PO once daily for only 7 days): very little effect | Number of Worms Recovered, Avg Female Worms (Brugia pahangi; 7 days, QD): 13.0 | Number of Worms Recovered, Avg Male Worms (Brugia pahangi; 7 days, QD): 25.2 | Number of Worms Recovered, Avg Female Worms (Brugia pahangi; 14 days, QD): 0.6 | Number of Worms Recovered, Avg Male Worms (Brugia pahangi; 14 days, QD): 11.4 | Number of Worms Recovered, Avg Female Worms (Brugia pahangi; 28 days QD): 0.1 | Number of Worms Recovered, Avg Male Worms (Brugia pahangi; 28 days QD): 11.1 | tolerability [5]: well tolerated | metabolism in metabolite ID studies [6]: have not observed a significant metabolism
